The values that follow come from PubChem BioAssay (NCI).

Test systems include COLO 205 colon; HOP-92 NSCLC; HCT-116 colon; OVCAR-5 ovarian; 786-0 renal; SW-620 colon; PC-3 prostate; SNB-75 CNS; SR leukemia; SF-295 CNS.
Holding throughout (assay): growth of human tumour cells (NCI), 48 h

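All cell lines were grown in 96-well plates and treated with compound for 48 hours. At the TGI there is no net growth.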

Regarding `CCOc1cc2c(cc1O)C=C[C@@H]1[C@@H]2CC[C@]2(C)[C@@H](O)CC[C@@H]12`, the TGI with COLO 205 colon is 47.2 µM; with HOP-92 NSCLC, more than 100 µM; in the test with HCT-116 colon it was 16 µM; in the test with OVCAR-5 ovarian it was more than 100 µM; in the test with 786-0 renal, more than 43.4 µM; in the test with SW-620 colon, more than 35.3 µM. Besides, the TGI in the test on PC-3 prostate was more than 100 µM; in the test with SNB-75 CNS it was more than 58.6 µM; in the test on SR leukemia it was 23.7 µM; with SF-295 CNS, 5.45 µM.

As to `CCOC(=O)c1ccc(NCc2ccc3nc(OC)c(OC)nc3c2)cc1`, the TGI in the test with COLO 205 colon, with HOP-92 NSCLC, in the test with HCT-116 colon, in the test with OVCAR-5 ovarian, in the test on 786-0 renal and with SW-620 colon was more than 100 µM throughout. The TGI in the test on PC-3 prostate, in the test on SNB-75 CNS, with SR leukemia and with SF-295 CNS was more than 100 µM each time.

As to `CN1/C(=C\N=O)C(C)(C)N(O)C1(C)C`, the TGI with COLO 205 colon, in the test on HOP-92 NSCLC, with HCT-116 colon, in the test on OVCAR-5 ovarian, in the test with 786-0 renal and with SW-620 colon was more than 100 µM each time. Further, the TGI with PC-3 prostate, in the test with SNB-75 CNS, with SR leukemia and in the test with SF-295 CNS was more than 100 µM in each case.

Take `C=C(C)[C@@]12C[C@H](OC(=O)[C@H](O)[C@@H](NC(=O)c3ccccc3)c3ccccc3)C(C)=C1[C@@H](OC(C)=O)C(=O)[C@@]1(C)C([C@@H]2OC(=O)c2cc(F)cc(F)c2)C2(OC(C)=O)CO[C@@H]2C[C@@H]1O` (stereo not given in full): the TGI with COLO 205 colon was 0.392 µM; in the test with HOP-92 NSCLC it was more than 10 µM; with HCT-116 colon, 1.22 µM; in the test on OVCAR-5 ovarian, 1.51 µM; with 786-0 renal, 3.3 µM; in the test with SW-620 colon it was more than 10 µM. Besides, the TGI with PC-3 prostate is more than 10 µM; with SNB-75 CNS, 0.973 µM; with SR leukemia, more than 3.64 µM; in the test on SF-295 CNS, more than 10 µM.

`Cc1cn(CCCCOC(=O)NC(CCCN=C(N)N)C(=O)O)c(=O)[nH]c1=O` (stereo not given): the TGI in the test on COLO 205 colon, in the test on HOP-92 NSCLC, in the test on HCT-116 colon, in the test with OVCAR-5 ovarian, with 786-0 renal and with SW-620 colon was more than 100 µM each time. Moreover, the TGI with PC-3 prostate, in the test with SNB-75 CNS, in the test with SR leukemia and in the test with SF-295 CNS was more than 100 µM in each case.

Regarding `O=C1NCN(c2ccccc2)C12CCN(CCCN1CCN(CCOC(c3ccccc3)c3ccccc3)CC1)CC2`, the TGI amounted to 2.26 µM in the test with COLO 205 colon; 5.54 µM in the test on HOP-92 NSCLC; 5.67 µM with HCT-116 colon; 10.1 µM in the test on OVCAR-5 ovarian; 2.31 µM in the test with 786-0 renal; 5.95 µM in the test on SW-620 colon. For the same compound, the TGI in the test on PC-3 prostate was determined as 7.69 µM; in the test on SNB-75 CNS, 5.46 µM; with SR leukemia, 2.04 µM; in the test on SF-295 CNS it was 6.41 µM.

As to `CCOC(=O)c1ccc(Nc2nc3ccccc3n3cccc23)cc1`, the TGI in the test on COLO 205 colon, with HOP-92 NSCLC, in the test on HCT-116 colon, with OVCAR-5 ovarian, in the test on 786-0 renal and in the test with SW-620 colon was more than 100 µM in each case. Further, the TGI was more than 100 µM in the test on PC-3 prostate, 48.3 µM in the test on SNB-75 CNS, more than 100 µM with SR leukemia and more than 100 µM in the test with SF-295 CNS.

Regarding `NC1=Nc2ccccc2Sc2nccn21`, the TGI is 35.4 µM in the test with COLO 205 colon; 40.8 µM with HOP-92 NSCLC; more than 100 µM with HCT-116 colon; more than 100 µM with OVCAR-5 ovarian; 57.9 µM in the test with 786-0 renal; more than 100 µM in the test on SW-620 colon. Further, the TGI in the test with PC-3 prostate was 65 µM; in the test on SNB-75 CNS it was 54.3 µM; with SR leukemia, 80.8 µM; in the test with SF-295 CNS, 43.7 µM.

For `COC(=O)c1ccc(NCC2=CC(=O)C=CC2=O)cc1O`, the TGI in the test on COLO 205 colon was 31.4 µM; in the test on HOP-92 NSCLC, 9.27 µM; in the test on HCT-116 colon it was 33.8 µM; with OVCAR-5 ovarian, 36.9 µM; with 786-0 renal, 31.4 µM; in the test on SW-620 colon, more than 100 µM. Besides, the TGI with PC-3 prostate was more than 100 µM; in the test with SNB-75 CNS it was 42.9 µM; in the test with SR leukemia, more than 100 µM; with SF-295 CNS it was 32.3 µM.

In the case of `Cc1ccc2c(ccc3ncc(CNc4ccc(NS(C)(=O)=O)cc4)c32)[nH]1`, the TGI with COLO 205 colon was 94.4 µM; in the test with HOP-92 NSCLC it was 90.3 µM; in the test on HCT-116 colon, 37.9 µM; with OVCAR-5 ovarian, 53.8 µM; in the test with 786-0 renal, 39.4 µM; with SW-620 colon, more than 100 µM. Further, the TGI in the test on PC-3 prostate turned out to be 68.7 µM; in the test on SNB-75 CNS it was 34 µM; in the test with SR leukemia it was 50.8 µM; in the test on SF-295 CNS, 59.2 µM.

As for `O=C1/C(=C/c2ccc([N+](=O)[O-])cc2)CCCc2ccccc21`, the TGI with COLO 205 colon, in the test on HOP-92 NSCLC, in the test on HCT-116 colon, with OVCAR-5 ovarian, with 786-0 renal and with SW-620 colon was more than 100 µM throughout. Further, the TGI in the test on PC-3 prostate, in the test on SNB-75 CNS, with SR leukemia and with SF-295 CNS was more than 100 µM throughout.

In the case of `NS(=O)(=O)c1ccc(N=Nc2ccc(O)cc2)cc1`, the TGI in the test on COLO 205 colon, in the test with HOP-92 NSCLC, in the test with HCT-116 colon, in the test with OVCAR-5 ovarian, in the test on 786-0 renal and with SW-620 colon was more than 100 µM in each case. Also, the TGI with PC-3 prostate is more than 100 µM; in the test on SNB-75 CNS, 88.9 µM; in the test on SR leukemia it was more than 100 µM; in the test on SF-295 CNS, more than 100 µM.
